Key:
[1] = system: Rhipicephalus microplus tick larvae; test: Tick larvae contact assay; conditions: read-out: Tick inhibition (% of damage+dead ticks)
Experimental: Tick larvae (Rhipicephalus microplus) were immersed for approximately 3 minutes in declining concentrations of a test compound (dissolved in a DMSO-emulsifier-deionized water mixture). Tick inhibition (% of damage+dead ticks per test concentration) was assessed approximately 24 hours after contact exposure. The vitality of used parasites was confirmed in negative control groups (i.e. an untreated control and a solvent control).

[2] = In vitro test of rain fastness; assay type: physicochemical; conditions: 5% solution in Miglyol 840 on rabbit hide, 4 hours, then 30 minutes in water
Experimental: In addition to good absorbance, the composition according to the invention has a high resistance to water. After applying a 5% solution of Compound 453 in Miglyol 840 to rabbit hide and allowing to sit for 4 hours, the sample was soaked in water for 30 minutes.

Compound	inhibition at 25 µM [1]	inhibition at 49 µM [1]	inhibition at 388 µM [1]	inhibition at 100 ppm [1]	presence of Compound 453 in the water [2]	weight loss after soaking in water [2]
O=C(Nc1ccc(F)cc1F)c1cc(NC(=O)[C@H]2[C@H](c3ccc(F)c(Cl)c3)C2(Cl)Cl)ccc1Cl [Compound 197]	≥ 80%	80%	80%	80%	–	–
O=C(Nc1ncc(F)cc1F)c1cc(NC(=O)[C@H]2[C@H](c3cc(Cl)cc(Cl)c3)C2(Cl)Cl)ccc1Cl [Compound 453]	–	–	–	–	below the detection limit	4%
